{
  "source": "patent US20100204187A1",
  "about": "“Purine Derivatives” (priority 2007, published 2010)",
  "data": [
    {"test_system": "C57BL/6J mice", "test": "Delayed-type hypersensitivity response (DTH), footpad swelling after sheep red blood cell challenge (Biological Assay 2)", "assay_type": "in vivo", "details": "administered orally (p.o. once daily during sensitization and challenge phases), male C57BL/6J mice", "experimental": "Delayed-Type Hypersensitivity Response (DTH)\nThis assay was performed essentially as disclosed in Kudlacz E. et al, see supra. Male C57BL/6J mice received i.v. injections of 1×10^5 sheep red blood cells in a volume of 0.2 mL sterile phosphate buffered saline (PBS). Four days later, sensitized mice received an injection of 1×10^8 sheep red blood cells in a volume of 30 μL sterile PBS into the left footpad. Twenty-four hours later, animals were sacrificed and their footpads removed and weighted. The DTH swelling response was calculated by subtracting the right footpad weight (baseline) from that of the left footpad (experimental). Test compounds or vehicle (0.2% carboxymethylcellulose and 1% Tween 80 in water) were administered p.o. once daily during both sensitization and challenge phases of the DTH response. Compounds of examples 1 cc, 1cr, 1ct, 5u, 10h and 10p were active in this assay when administered orally.", "values": [
      {"smiles": "COc1ccc(Nc2nc(-c3ccc(NC(C)=O)cc3)c3nc[nH]c3n2)cc1S(N)(=O)=O", "note": "[Example 1 cc, 6-(4-acetylamino)phenyl-2-(4-methoxy-3-aminosulfonylphenyl)amino-9H-purine]", "activity in DTH swelling response assay": "active"},
      {"smiles": "COc1ccc(Nc2nc(-c3cccc(S(C)(=O)=O)c3)c3nc[nH]c3n2)cc1OC", "note": "[Example 1cr, 2-(3,4-dimethoxyphenyl)amino-6-(3-methanesulfonyl)phenyl-9H-purine]", "activity in DTH swelling response assay": "active"},
      {"smiles": "CS(=O)(=O)c1cccc(-c2nc(Nc3ccc(CCO)cc3)nc3[nH]cnc23)c1", "note": "[Example 1ct]", "activity in DTH swelling response assay": "active"},
      {"smiles": "CCCN(C)c1ccc(-c2nc(Nc3ccc(N4CCOCC4)cc3)nc3[nH]cnc23)cn1", "note": "[Example 5u, 6-[(6-N-methylpropylamino)pyridin-3-yl]-2-[4-(4-morpholino)phenyl]amino-9H-purine]", "activity in DTH swelling response assay": "active"}
    ]}
  ]
}
